System: liver cells
Experiment: Distribution ratio into fractions and efflux scoring of a fluorescent drug in cultured liver cells (Steps 0-6, plate reader)
Assay type: in vitro ADME, rat
Method: In this step, liver cells are prepared and cultured for verifying an effect of a drug. An example will be shown below. The preparation of liver cells was made according to an in-situ collagenase perfusion method. The detail is as follows. A rat (5 to 6 weeks old) is subjected to laparotomy under pentobarbital anesthesia, and a catheter is inserted into the portal vein and a pre-perfusion fluid (Hanks' solution not containing Ca2+ and Mg2+ but containing EGTA) is injected.
Liver cells prepared by the in-situ collagenase perfusion method as described above are suspended in a medium, and the liver cells in the suspension at a density of 5×10^5 cells/mL are seeded on a commercially available collagen-coated culture dish, to conduct two dimensional plane culture (for example, sandwich culture). The seeding density, medium, culture plate 001 are not particularly limited.
After seeding, culture is started using a CO2 incubator under conditions of 5% CO2 and 37° C. After 18 hours or more elapse, a first medium exchange is performed. Although a medium used for culture from 18 hours after the seeding is not particularly limited, in this example, a medium obtained by excluding FCS from a medium (10% FCS+) to make a medium (herein after medium (FCS−)) and then adding matrigel thereto was used. After that, medium exchange is performed with the medium (FCS−) every 24 hours.
In this step, cells cultured in Step 0 are conditioned to a condition suitable for a drug assessment. An example will be shown below. The culture supernatant of cells cultured for 4 days in Step 0 is removed, […] of a Hanks' solution is added as a buffer, and then incubation is performed at 37° C. for 10 minutes (FIG. 2, Step 1).
In this step, a drug solution to be assessed is administered to cells. An example will be shown below. After removing the buffer, 200 μL of 10 μM CDF (fluorescent reagent) is added to a well, incubation is performed at 37° C. for 30 minutes, the well is then retained at 4° C. for 5 minutes (FIG. 2, Step 2). […]

[1] = Pattern 1, drug incubated 37° C. 30 minutes, fluorescence measurement

ratio of the bile duct excretion drug amount relative to the whole drug amount taken in the cells (BiRD), (B1-B2)/(C1+C2) [1]: 4.92
ratio of the drug amount discharged via a transporter relative to the blood-vessel-side discharge drug amount (RexEMTP), (B2-B3)/B2 [1]: 52.52
sup fraction (first blood-vessel-side discharge fraction, S1) (Pattern 2: total sum of Steps 4, 5 and 6 taken as 100%, Step 4 Hanks' solution 37° C. 30 minutes, in %): 39.29
Substance: Rhodamine 123

Reference: US10830763B2, “Component analysis device, drug component analysis device, component analysis method, and drug component analysis method” (Hitachi High-Technologies Corporation, priority 2015, dated 2020)
